Experimental data reported in EP4341264B1, “PYRROLOPIRIMIDINE DERIVATIVES AND THEIR USE IN THE TREATMENT OF LEISHMANIASIS” (Drugs for Neglected Diseases Initiative, priority 2021, dated 2022).
Where two headings read alike, the source gives them in different places.

What was measured:
[1] = system: L. donovani (MHOM/ET/67/L82); test: Intracellular amastigote susceptibility assay (primary peritoneal mouse macrophages); assay type: cell-based; conditions: Leishmania donovani, Macrophage; L. donovani (MHOM/ET/67/L82) amastigotes in mouse macrophages, 96-h incubation
Procedure: (§1) To obtain primary peritoneal macrophages, Swiss mice were stimulated by intraperitoneal injection of 1 mL 2% starch in PBS 48 h prior to cell collection. Animals were euthanized with a CO2 overdose and upon removal of the skin, 10 mL of RPMI-1640 (Life Technologies) was injected into the peritoneal cavity to collect the macrophages that were then seeded into 96-well plates at a final concentration of 30,000 cells/well in 100 µL of RPMI-1640 macrophage medium, supplemented with 5% iFCS, 2% penicillin/streptomycin and 1% L-glutamine (Life technologies). After 24 h, the cells were infected with spleen derived L. infantum (MHOM/MA(BE)/67/ITMAP263) or L. donovani (MHOM/ET/67/L82) amastigotes obtained from heavily infected donor hamsters. The amastigotes were purified using two centrifugation steps and diluted to obtain an infection ratio of 5:1 in RPMI-1640 cell culture medium. After incubation for 2 h, compound dilutions were added. Drug activity was evaluated after a 96-h incubation period without washing of the cells and without renewal of the drugged culture medium. Cells were stained with Giemsa for microscopic evaluation of cellular amastigote burdens. Percentage reduction compared to the burdens in the infected non-treated control wells was used as a measure for drug activity.

[2] = system: L. infantum (MHOM/MA/67/ITMAP263); test: as above; assay type: cell-based; conditions: Leishmania infantum, Macrophage; L. infantum (MHOM/MA/67/ITMAP263) amastigotes in mouse macrophages, 96-h incubation
Procedure: as §1

[3] = system: L. donovani (MHOM/ NP/2003/BPK282/0-cl4); test: Leishmania clinical isolate panel screen (drug-susceptibility assay in infected macrophages); assay type: cell-based; conditions: Macrophage, read-out: IC50 Mean ± SEM
Procedure: (§2) Female Swiss mice (BW ~20 g) were purchased from a commercial source (Janvier France) and kept in quarantine for 1 week. The animals were housed in group and drinking water was available ad libitum. To harvest peritoneal macrophages, the mice were first stimulated by intraperitoneal injection of 1 mL of starch solution (2% in PBS). After 24 h, macrophages were collected in RPMI-1640 supplemented with 5% iFCS, 2% penicillin-streptomycin and 1% L-glutamine by peritoneal lavage and immediately distributed in a 96-well plate at a concentration of 30,000 cells/well. The cells were incubated for 24 h at 37°C and 5 % CO2 to allow cell attachment.
(§3) Strains of L. donovani, L. infantum, L. major, L. tropica, L. guyanensis and L. panamensis were selected based on their intrinsic susceptibility to the commonly used reference drugs and their geographic distribution. All strains were cultivated in HOMEM promastigote medium and sub-cultured twice weekly. Passage numbers were kept as low as possible to avoid loss of virulence. For infection of the macrophages, metacyclic promastigote cultures were examined light microscopically for the abundant presence of metacyclic promastigotes. Upon counting, promastigotes were centrifuged and diluted in RPMI-1640 to the desired concentration. The infection ratio varied based on the ability of the strain to adequately infect the host cells and ranged from 5 to 20 promastigotes per macrophage. Macrophages were infected by adding 100 µL promastigote suspension per well onto the macrophages. When ex vivo amastigotes were available (only for two lab strains), macrophages were infected at a ratio of 10/1.
(§4) Stock solutions of the DNDi lead compounds were prepared in 100% DMSO at 20 mM and robotically further diluted in water. Miltefosine (MIL) was included as reference and formulated in water at a concentration of 20 mM. The medium was discarded from the plates to remove any residual non-internalized promastigotes and replaced by fresh RPMI-1640 medium supplemented with iFBS, P/S and L-glutamine (as described above). Next, a 2-fold dilution series of each lead compound was added to the plate with 64 µM as the highest in test-concentration for the DNDi leads and 40 µM for MIL. The 96-well plates were further incubated at 34-37°C and 5% CO2. For staining, the culture medium was discarded, and the plates were left to dry for 2-4 hours. The cells were then fixated with methanol for 10 minutes and stained with a 1/5 Giemsa dilution in water for 15 minutes. The percentage infection-inhibition compared to a positive control (untreated infected macrophages) was microscopically determined and used to calculate the IC50 and IC90 values.

[4] = system: L. donovani (MHOM/NP/03/BPK275/0-cl18); test: as above; assay type: cell-based; conditions: Macrophage, read-out: IC50 Mean ± SEM
Procedure: as §2, §3, §4

[5] = system: L. guyanensis (MHOM/PE/02/PER 054/0); test: as above; assay type: cell-based; conditions: Macrophage, read-out: IC50 Mean ± SEM
Procedure: as §2, §3, §4

[6] = system: L. infantum (LEM3323-cl4 MIL); test: as above; assay type: cell-based; conditions: Macrophage, read-out: IC50 Mean ± SEM
Procedure: as §2, §3, §4

[7] = system: L. infantum (LEM3323-cl4 PMM); test: as above; assay type: cell-based; conditions: Macrophage, read-out: IC50 Mean ± SEM
Procedure: as §2, §3, §4

[8] = system: L. infantum (MHOM/BR/2007/WC (L3015)); test: as above; assay type: cell-based; conditions: Macrophage, read-out: IC50 Mean ± SEM
Procedure: as §2, §3, §4

[9] = system: L. infantum (MHOM/ES/2016/LLM-2346); test: as above; assay type: cell-based; conditions: Macrophage, read-out: IC50 Mean ± SEM
Procedure: as §2, §3, §4

[10] = system: L. infantum (MHOM/FR/96/LEM3323-cl4); test: as above; assay type: cell-based; conditions: Macrophage, read-out: IC50 Mean ± SEM
Procedure: as §2, §3, §4

[11] = system: L. major (MHOM/IL/81/Friedlin); test: as above; assay type: cell-based; conditions: Macrophage, read-out: IC50 Mean ± SEM
Procedure: as §2, §3, §4

[12] = system: L. major (MHOM/SA/85/JISH118); test: as above; assay type: cell-based; conditions: Macrophage, read-out: IC50 Mean ± SEM
Procedure: as §2, §3, §4

[13] = system: L. panamensis (MHOM/PA/71/LS94); test: as above; assay type: cell-based; conditions: Macrophage, read-out: IC50 Mean ± SEM
Procedure: as §2, §3, §4

[14] = system: L. tropica (MHOM/AF/2015/HTD7); test: as above; assay type: cell-based; conditions: Macrophage, read-out: IC50 Mean ± SEM
Procedure: as §2, §3, §4

L. infantum = test: VL hamster model in vivo efficacy (reduction of parasite load vs. control); conditions: 5 days
Procedure: The in vivo efficacy of the compounds C1, C3, C4, and miltefosine was evaluated in a VL hamster model infected with L. infantum. The in vivo studies were performed in accordance with the methods described by Van den Kerkhof et al. [IJP: Drugs and Drug Resistance, 2018, 8, Issue 1, 81-86]. Following treatment, the reduction of parasite load vs. control was determined in different body compartments (liver, spleen, and bone marrow) with results presented in Table 4. Table 4. Hamster in vivo efficacy

[15] = system: T. cruzi infected NIH-3T3 murine fibroblasts; conditions: Peña et al. Sci. Rep. 2015, 5; cited from earlier work
[16] = system: L. donovani parasites in infected human macrophages; conditions: Peña et al. Sci. Rep. 2015, 5; cited from earlier work
[17] = Visceral leishmaniasis, L. donovani (MHOM/ NP/2003/BPK282/0-cl4), Miltefosine: mean only
[18] = Visceral leishmaniasis, L. donovani (MHOM/NP/03/BPK275/0-cl18), Miltefosine: mean only
[19] = Cutaneous leishmaniasis, L. guyanensis (MHOM/PE/02/PER 054/0), Miltefosine: mean only
[20] = Visceral leishmaniasis, L. infantum (MHOM/BR/2007/WC (L3015)), Miltefosine: mean only
[21] = Visceral leishmaniasis, L. infantum (MHOM/ES/2016/LLM-2346), Miltefosine: mean only
[22] = Visceral leishmaniasis, L. infantum (MHOM/FR/96/LEM3323-cl4), Miltefosine: mean only
[23] = Cutaneous leishmaniasis, L. major (MHOM/IL/81/Friedlin), Miltefosine: mean only
[24] = Cutaneous leishmaniasis, L. major (MHOM/SA/85/JISH118), Miltefosine: mean only
[25] = Cutaneous leishmaniasis, L. panamensis (MHOM/PA/71/LS94), Miltefosine: mean only
[26] = Cutaneous leishmaniasis, L. tropica (MHOM/AF/2015/HTD7), Miltefosine: mean only

## COc1cc(C#N)ccc1-c1c(C)[nH]c2nc(N)nc(C)c12 [Compound C1, 4-(2-amino-4,6-dimethyl-7H-pyrrolo[2,3-d]pyrimidin-5-yl)-3-methoxybenzonitrile]
[1]
  IC50: 1390 nM
  IC90: 2320 nM
[2]
  IC50: 870 nM
  IC90: 2900 nM
[3]; [17]
  IC50: 100 ± 170 nM
[4]; [18]
  IC50: 150 ± 20 nM
[5]; [19]
  IC50: 60 ± 30 nM
[6]
  IC50: 350 ± 80 nM
[7]
  IC50: 380 ± 70 nM
[8]; [20]
  IC50: 440 ± 240 nM
[9]; [21]
  IC50: 690 ± 190 nM
[10]; [22]
  IC50: 200 ± 80 nM
[11]; [23]
  IC50: 500 ± 170 nM
[12]; [24]
  IC50: 3000 ± 1050 nM
[13]; [25]
  IC50: 170 ± 110 nM
[14]; [26]
  IC50: 1490 ± 240 nM
L. infantum; 25 mg/kg bid
  % Parasite reduction Bone marrow: 98.9%
  % Parasite reduction Liver: 95.9%
  % Parasite reduction Spleen: 95.2%
L. infantum; 50 mg/kg bid
  % Parasite reduction Bone marrow: 97.4%
  % Parasite reduction Liver: 99.2%
  % Parasite reduction Spleen: 95.3%

## Cc1[nH]c2nc(N)nc(C)c2c1-c1ccc(F)c2c1OCO2 [Compound C2, 5-(7-fluoro-1,3-benzodioxol-4-yl)-4,6-dimethyl-7H-pyrrolo[2,3-d]pyrimidin-2-amine]
[1]
  IC50: 140 nM
  IC90: 650 nM
[2]
  IC50: 150 nM
  IC90: 330 nM

## COc1nc(OCC(F)(F)F)cnc1-c1c(C)[nH]c2nc(N)nc(C)c12 [Compound C3, 5-[3-methoxy-5-(2,2,2-trifluoroethoxy)pyrazin-2-yl]-4,6-dimethyl-7H-pyrrolo[2,3-d]pyrimidin-2-amine]
[1]
  IC50: 1570 nM
  IC90: 6480 nM
[2]
  IC50: 1580 nM
  IC90: 3480 nM
[3]; [17]
  IC50: 320 ± 160 nM
[4]; [18]
  IC50: 230 ± 100 nM
[5]; [19]
  IC50: 120 ± 10 nM
[6]
  IC50: 400 ± 140 nM
[7]
  IC50: 540 ± 50 nM
[8]; [20]
  IC50: 820 ± 330 nM
[9]; [21]
  IC50: 690 ± 360 nM
[10]; [22]
  IC50: 330 ± 80 nM
[11]; [23]
  IC50: 830 ± 340 nM
[12]; [24]
  IC50: 6640 ± 610 nM
[13]; [25]
  IC50: 260 ± 130 nM
[14]; [26]
  IC50: 2380 ± 420 nM
L. infantum; 12.5 mg/kg qd
  % Parasite reduction Bone marrow: 89.9%
  % Parasite reduction Liver: 96.1%
  % Parasite reduction Spleen: 98.4%
L. infantum; 25 mg/kg qd
  % Parasite reduction Bone marrow: 86.7%
  % Parasite reduction Liver: 98.4%
  % Parasite reduction Spleen: 99.0%

## Cc1[nH]c2nc(N)nc(C)c2c1-c1ccc(C#N)c2c1OCO2 [Compound C4, 7-(2-amino-4,6-dimethyl-7H-pyrrolo[2,3-d]pyrimidin-5-yl)-1,3-benzodioxole-4-carbonitrile]
[1]
  IC50: 160 nM
  IC90: 410 nM
[2]
  IC50: 150 nM
  IC90: 370 nM
[3]
  IC50: 30 ± 30 nM
[4]
  IC50: 40 ± 10 nM
[5]
  IC50: 10 nM
[6]
  IC50: 70 ± 10 nM
[7]
  IC50: 60 ± 20 nM
[8]
  IC50: 50 ± 30 nM
[9]
  IC50: 170 ± 70 nM
[10]
  IC50: 50 ± 10 nM
[11]
  IC50: 80 ± 20 nM
[12]
  IC50: 560 ± 260 nM
[13]
  IC50: 30 ± 10 nM
[14]
  IC50: 300 ± 90 nM
L. infantum; 6.25 mg/kg bid
  % Parasite reduction Bone marrow: 93.6%
  % Parasite reduction Liver: 96.9%
  % Parasite reduction Spleen: 97.6%
L. infantum; 12.5 mg/kg bid
  % Parasite reduction Bone marrow: 99.6%
  % Parasite reduction Liver: 99.7%
  % Parasite reduction Spleen: 99.9%
L. infantum; 25 mg/kg qd
  % Parasite reduction Bone marrow: 99.4%
  % Parasite reduction Liver: 99.6%
  % Parasite reduction Spleen: 99.9%
L. infantum; 50 mg/kg qd
  % Parasite reduction Bone marrow: 99.9%
  % Parasite reduction Liver: 99.7%
  % Parasite reduction Spleen: 99.9%

## COc1ccccc1-c1c(C)[nH]c2nc(N)nc(C)c12 [TCMDC-143610]
[15]
  pIC50: 6.6
[16]
  pIC50: 4.6
